Measurements published in ChEMBL document CHEMBL1201862, “PubChem BioAssay data set” (2004).
Calls of active or inactive are those of the source.

Legend:
Format in all cases: functional
Cannabinoid receptor 1 [1] = target: T1, Cannabinoid receptor 1 (Homo sapiens, UniProt P21554); assay: SAR analysis of agonists of the Cannabinoid Receptor 1 using an Image-Based Assay - Set 4. [Related pubchem assays (depositor defined):AID2013, AID2026]
[2] = target: T2, G-protein coupled receptor 35 (Homo sapiens, UniProt Q9HC97); assay: SAR analysis of Antagonists of the GPR35 Receptor using an Image-Based Assay - Set 6. [Related pubchem assays (depositor defined):AID2013, AID2026]
T2 sequence (Q9HC97 whole entry): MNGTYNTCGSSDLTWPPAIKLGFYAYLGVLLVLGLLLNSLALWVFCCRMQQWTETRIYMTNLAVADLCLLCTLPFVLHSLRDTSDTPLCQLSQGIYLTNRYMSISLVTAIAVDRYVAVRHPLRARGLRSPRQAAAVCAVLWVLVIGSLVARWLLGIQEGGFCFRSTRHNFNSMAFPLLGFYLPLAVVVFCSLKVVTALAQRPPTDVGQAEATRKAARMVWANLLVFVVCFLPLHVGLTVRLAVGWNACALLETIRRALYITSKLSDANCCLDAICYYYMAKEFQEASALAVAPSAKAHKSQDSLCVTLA

Cannabinoid receptor 1 [3] = target: T1, Cannabinoid receptor 1; assay: SAR analysis of antagonists of the Cannabinoid Receptor 1 using an Image-Based Assay - Set 4. [Related pubchem assays (depositor defined):AID2013, AID2026]
[4] = target: T2, G-protein coupled receptor 35; assay: SAR analysis of Agonists of the GPR35 Receptor using an Image-Based Assay - Set 4. [Related pubchem assays (depositor defined):AID2013, AID2026]
Cannabinoid receptor 2 [5] = target: T3, Cannabinoid receptor 2 (Homo sapiens, UniProt P34972); assay: SAR analysis of agonists of the Cannabinoid Receptor 2 using an Image-Based Assay - Set 3. [Related pubchem assays (depositor defined):AID2013, AID2026]
T3 sequence (P34972 whole entry): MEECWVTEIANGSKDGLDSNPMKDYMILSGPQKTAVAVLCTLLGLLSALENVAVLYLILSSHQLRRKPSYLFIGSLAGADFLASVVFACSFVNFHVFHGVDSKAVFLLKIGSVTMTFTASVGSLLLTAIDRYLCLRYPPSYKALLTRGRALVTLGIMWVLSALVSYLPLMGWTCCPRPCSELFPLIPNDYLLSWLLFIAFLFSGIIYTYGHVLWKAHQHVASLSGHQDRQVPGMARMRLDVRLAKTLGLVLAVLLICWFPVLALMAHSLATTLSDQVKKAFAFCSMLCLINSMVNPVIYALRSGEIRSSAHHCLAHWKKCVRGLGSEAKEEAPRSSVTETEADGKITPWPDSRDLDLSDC

Cannabinoid receptor 2 [6] = target: T3, Cannabinoid receptor 2; assay: SAR analysis of antagonists of the Cannabinoid Receptor 2 using an Image-Based Assay - Set 3. [Related pubchem assays (depositor defined):AID2013, AID2026]
[7] = target: G-protein coupled receptor 55 (Homo sapiens, UniProt Q9Y2T6); assay: SAR Analysis of Selective Antagonists of GPR55 using an Image-Based Assay - Set 4. [Related pubchem assays (depositor defined):AID2013, AID2026];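 further: antagonism of response to 5 µM lysophosphatidylinositol agonist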
Sequence of G-protein coupled receptor 55 (Q9Y2T6 whole entry): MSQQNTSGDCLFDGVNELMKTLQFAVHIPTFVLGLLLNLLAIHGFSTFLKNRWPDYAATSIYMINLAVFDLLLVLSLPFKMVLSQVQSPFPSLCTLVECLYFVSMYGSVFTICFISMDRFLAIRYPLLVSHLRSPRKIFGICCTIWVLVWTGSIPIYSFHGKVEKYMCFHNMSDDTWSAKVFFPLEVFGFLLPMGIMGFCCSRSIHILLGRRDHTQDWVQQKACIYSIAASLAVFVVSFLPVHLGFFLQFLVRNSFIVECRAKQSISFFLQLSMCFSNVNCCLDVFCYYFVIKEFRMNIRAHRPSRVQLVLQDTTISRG

[8] = target: Tyrosine-protein phosphatase non-receptor type 7 (Homo sapiens, UniProt P35236); assay: SAR analysis of chemical inhibitors of HePTP using a Fluorescent assay - Set 2. [Related pubchem assays (depositor defined):AID1059, AID1077, AID1661, AID2085, AID521]
Sequence of Tyrosine-protein phosphatase non-receptor type 7 (P35236 whole entry): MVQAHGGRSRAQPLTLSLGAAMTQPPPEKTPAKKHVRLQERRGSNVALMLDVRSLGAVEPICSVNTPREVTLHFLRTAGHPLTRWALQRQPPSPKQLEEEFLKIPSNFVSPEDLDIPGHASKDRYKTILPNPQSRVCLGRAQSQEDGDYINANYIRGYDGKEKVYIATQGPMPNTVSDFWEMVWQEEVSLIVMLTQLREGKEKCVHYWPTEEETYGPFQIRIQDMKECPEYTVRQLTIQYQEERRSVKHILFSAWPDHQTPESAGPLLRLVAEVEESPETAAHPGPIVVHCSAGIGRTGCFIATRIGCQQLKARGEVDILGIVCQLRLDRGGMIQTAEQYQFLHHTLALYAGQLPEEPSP

[9] = target: Dual specificity protein phosphatase 3 (Homo sapiens, UniProt P51452); assay: SAR VHR1 Fluorescent Assay for In Vitro dose response studies Set 2. [Related pubchem assays (depositor defined):AID1654, AID1661, AID1878]
Sequence of Dual specificity protein phosphatase 3 (P51452 whole entry): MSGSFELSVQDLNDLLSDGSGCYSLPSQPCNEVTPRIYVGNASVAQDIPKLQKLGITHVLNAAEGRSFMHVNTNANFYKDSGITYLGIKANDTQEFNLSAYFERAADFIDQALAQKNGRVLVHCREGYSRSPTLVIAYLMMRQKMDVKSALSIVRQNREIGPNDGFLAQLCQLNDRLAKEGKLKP

Coagulation factor XII = target: T4, Coagulation factor XII (Homo sapiens, UniProt P00748); assay: Factor XIIa Dose Response Confirmation from Single Well HTS. [Related pubchem assays (depositor defined):AID701]
T4 sequence (P00748 whole entry): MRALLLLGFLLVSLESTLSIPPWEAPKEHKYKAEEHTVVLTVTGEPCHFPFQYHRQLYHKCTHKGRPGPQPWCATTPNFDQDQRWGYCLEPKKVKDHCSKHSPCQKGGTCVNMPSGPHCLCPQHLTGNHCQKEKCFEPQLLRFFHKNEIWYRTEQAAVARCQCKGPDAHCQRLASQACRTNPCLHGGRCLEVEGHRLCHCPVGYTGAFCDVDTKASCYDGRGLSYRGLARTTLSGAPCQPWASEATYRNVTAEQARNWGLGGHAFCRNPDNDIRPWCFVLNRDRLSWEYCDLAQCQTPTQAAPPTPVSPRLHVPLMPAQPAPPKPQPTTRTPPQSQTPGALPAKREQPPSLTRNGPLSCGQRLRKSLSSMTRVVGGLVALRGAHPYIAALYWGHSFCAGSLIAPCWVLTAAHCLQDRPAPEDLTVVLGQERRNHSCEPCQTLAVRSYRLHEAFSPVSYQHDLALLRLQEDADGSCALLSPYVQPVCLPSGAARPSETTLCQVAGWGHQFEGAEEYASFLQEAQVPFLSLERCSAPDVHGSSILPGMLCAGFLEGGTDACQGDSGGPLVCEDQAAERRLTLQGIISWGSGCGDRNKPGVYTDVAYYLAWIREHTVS

T1 sequence (P21554 whole entry): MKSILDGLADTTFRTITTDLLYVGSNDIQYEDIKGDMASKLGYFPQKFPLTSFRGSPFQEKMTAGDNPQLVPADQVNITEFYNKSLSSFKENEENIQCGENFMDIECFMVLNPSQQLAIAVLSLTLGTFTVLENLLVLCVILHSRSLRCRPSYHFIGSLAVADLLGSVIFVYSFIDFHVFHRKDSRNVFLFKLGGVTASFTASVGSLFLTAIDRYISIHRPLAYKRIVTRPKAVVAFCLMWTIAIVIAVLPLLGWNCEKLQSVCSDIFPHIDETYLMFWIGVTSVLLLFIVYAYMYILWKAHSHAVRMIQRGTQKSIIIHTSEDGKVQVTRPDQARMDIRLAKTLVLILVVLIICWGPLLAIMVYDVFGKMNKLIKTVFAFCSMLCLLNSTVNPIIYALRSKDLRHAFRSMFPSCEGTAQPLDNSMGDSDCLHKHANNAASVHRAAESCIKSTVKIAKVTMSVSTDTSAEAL

In the case of `Cc1nnc(-c2cccc3ccccc23)c2cn(-c3cccc(Br)c3)nc12`, the EC50 (Cannabinoid receptor 1 [1]) is reported as > 32 µM (inactive), the IC50 [2] is reported as 28.2 µM (inactive) and the IC50 (Cannabinoid receptor 1 [3]) is reported as 0.661 µM (active). For the same compound, the EC50 [4] was > 32 µM (inactive), the EC50 (Cannabinoid receptor 2 [5]) was > 32 µM (inactive) and the IC50 (Cannabinoid receptor 2 [6]) was 3.87 µM (active). For the same compound, the IC50 [7] was 5.27 µM (active).
`Nc1c(C(=O)N2CCOCC2)sc(=S)n1-c1ccccc1` was tested, and the IC50 [8] was > 100 µM (inactive) and the IC50 [9] was 85.5 µM (active).
In the case of `N#Cc1ccc(NC(=O)COC(=O)CNC(=O)C2CCCCC2)cc1`, the IC50 (Coagulation factor XII) is reported as > 50 µM (inactive).
